The values that follow come from patent US8182815B2, “Fibroblast growth factor receptor-3 (FGFR-3) inhibitors and methods of treatment” (ImClone, LLC, priority 2008, dated 2012).

Experiment [1] has as its target T1, FGFR-3 (K650E) in OPM-2 cells (Homo sapiens, UniProt P22607, K650E).
T1 construct: endogenous in cells; host or cells: OPM-2
Nature of the experiment: FGFR-3 receptor degradation in OPM-2 cells (western blot). Format: cell-based. The following applies: 37° C., Antibody 1 30 ug/ml, FGF-1 30 ng/ml. The method, then: OPM-2 is a cell line originally isolated from cancer cells of multiple myeloma. OPM-2 cells are known to express FGFR-3 receptors harboring a gain-of-function K650E point mutation. Quiesce the OPM-2 cells in low serum culture media (0.1% FBS) for overnight. The next day, divide these cells into 5 groups. Group 1 is lysed immediately, and the lysate is kept at −20° C. until the time of western blot analysis. This group is therefore designated as Time 0 hr sample. Group 2-5 each has 3 samples of equal size, named as Sample A, B and C of Group 2, 3, 4, and 5. Samples A of Group 2-5 are not subjected to any further treatment, but are incubated at 37° C. Samples B of Group 2-5 are treated with 30 ng/ml FGF-1 at 37° C. […] All samples of Group 2 are lysed after 1 hr of treatment, and the lysates are kept at −20° C. until the time of western blot analysis. This group is designated as the Time 1 hr samples. All samples of Group 3 are lysed after 4 hr of treatment, and the lysates are kept at −20° C. until the time of western blot analysis. This group is designated as the Time 4 hr samples. All samples of Group 4 are lysed after 8 hr of treatment, and the lysates are kept at −20° C. until the time of western blot analysis. This group is designated as Time 8 hr samples. All samples of Group 5 are lysed after 24 hr of treatment, and the lysates are kept at −20° C. until the time of western blot analysis. This group is designated as Time 24 hr samples. When all lysates are ready, they are subjected to SDS-PAGE followed by Western Blot experiment. The FGFR-3 signals of Group 1 and all samples of Group 2 are similar. […] In Group 5, the FGFR-3 signal of Sample A is lower than that of group 1; yet signals of Samples B and C are nearly absent.
Background: A western blot detects proteins with antibodies after separation by electrophoresis.

The next experiment has as its system RT112 cells. The experiment can be described thus: RT112 cell proliferation assay (3H-thymidine incorporation). The experiment is classed as cell-based, human. The following applies: 1 nM exogenous FGF-1, 48 hours. As to the method:
Quiesce monolayer RT112 cells in low serum culture media (0.1% fetal bovine serum, 5 μg/mL heparin) for 24-72 hrs. Divide cells into 4 samples. Add FBS (Fetal Bovine Serum) to Sample 1 to the final concentration of 10% (V:V). Leave Sample 2 in the starving media. Add FGF-1 to Sample 3 to the final concentration of 1 nM. […] Next, add FGF-1 to the final concentration of 1 nM. After preparing Samples 1-4 as described above, incubate the samples in a tissue culture incubator set at 37° C. and with 5% CO2 (v:v) for 48 hours. Detect cell growth using standard ^3H-thymidine incorporation, assays. Tumor cell growth is doubled when RT112 cells […] are stimulated with 1 nM exogenous FGF-1.
(Uptake of a labelled nucleoside into DNA is a usual measure of proliferation.)

The next experiment deals with RT-112 tumor. Nature of the experiment: RT112 xenograft, combination with cisplatin. The following applies: Antibody 1 40 mg/kg three times weekly, cisplatin MTD.
The test system of a further experiment is RT4 tumor. The experiment can be described thus: RT4 xenograft, combination with cisplatin. The following applies: Antibody 1 40 mg/kg three times weekly, cisplatin MTD.
In the next experiment the test system is BFTC-905 tumor. The experiment can be described thus: BFTC905 xenograft, combination with cisplatin. Particulars: Antibody 1 40 mg/kg three times weekly, cisplatin MTD.

T1 sequence (P22607 23-806 K650E): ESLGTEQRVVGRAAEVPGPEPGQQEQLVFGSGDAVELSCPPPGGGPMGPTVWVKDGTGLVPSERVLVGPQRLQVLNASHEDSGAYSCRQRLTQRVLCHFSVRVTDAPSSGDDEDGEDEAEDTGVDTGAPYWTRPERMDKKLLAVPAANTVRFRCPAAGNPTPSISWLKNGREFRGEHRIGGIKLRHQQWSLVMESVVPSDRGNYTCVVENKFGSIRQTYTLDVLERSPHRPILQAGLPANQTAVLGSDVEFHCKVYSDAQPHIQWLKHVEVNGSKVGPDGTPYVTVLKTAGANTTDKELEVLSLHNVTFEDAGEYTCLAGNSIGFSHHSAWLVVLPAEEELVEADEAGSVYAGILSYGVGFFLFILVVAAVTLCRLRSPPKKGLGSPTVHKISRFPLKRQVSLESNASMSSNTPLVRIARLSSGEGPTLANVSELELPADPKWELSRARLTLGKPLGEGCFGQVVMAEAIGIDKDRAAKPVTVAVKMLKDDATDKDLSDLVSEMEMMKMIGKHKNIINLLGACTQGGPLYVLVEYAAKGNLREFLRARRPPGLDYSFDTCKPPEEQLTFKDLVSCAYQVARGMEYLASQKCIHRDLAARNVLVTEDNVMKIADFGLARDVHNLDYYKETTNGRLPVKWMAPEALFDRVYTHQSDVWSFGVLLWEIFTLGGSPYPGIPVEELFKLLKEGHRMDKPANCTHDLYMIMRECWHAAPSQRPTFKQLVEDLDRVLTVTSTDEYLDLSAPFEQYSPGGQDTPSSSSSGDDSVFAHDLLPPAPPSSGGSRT
Protocol for BFTC-905 tumor: (§1) The therapeutic benefit of combining cisplatin with FGFR-3 antibody in three bladder xenograft models is explored. Develop RT112, RT4 and BFTC905 xenograft tumor models by routine methods in which 1-20 million tumor cells mixed with 0-100% Matrigel are injected subcutaneously to each female athymic nude mouse. Start antibody treatment once the mean volume of the subcutaneous tumors is approximately 400 mm^2. […] Measure tumor volumes 3 times weekly until the end of the studies.
Conduct RM ANOVO statistical test.
Protocol for RT-112 tumor: as §1
Conduct RM ANOVO statistical test.
Protocol for RT4 tumor: as §1
Conduct RM ANOVO statistical test.

For the molecule “FGF-1: recombinant human FGF ligand, known to induce FGFR degradation”, the “FGFR-3 signal compared with Time 0 hr (Group 1)” value in experiment [1] (Time 1 hr) is on record as “similar”; in experiment [1] (Time 4 hr), “significantly lower”; in experiment [1] (Time 8 hr) it was “significantly lower”; in experiment [1] (Time 24 hr), “nearly absent”. The “tumor cell growth on stimulation” value in the experiment with RT112 cells is “doubled”.
On to `N.N.[Cl][Pt][Cl]` [Cisplatin, cisplatin, reference compound], for which the “RT-112 Tumor Volumes, Average” value in the experiment on RT-112 tumor (Day 1) is given as 175.7 mm^3; in the experiment on RT-112 tumor (Day 8), 245.1 mm^3; with RT-112 tumor (Day 15) it was 360.8 mm^3; in the experiment on RT-112 tumor (Day 22), 578.8 mm^3; with RT-112 tumor (Day 29), 739.4 mm^3; in the experiment on RT-112 tumor (Day 36), 881.6 mm^3. Moreover, in the experiment with RT-112 tumor (Day 42), the “RT-112 Tumor Volumes, Average” value is 1115.9 mm^3. Further, the “RT4 Tumor Volumes, Average” value is 195.4 mm^3 in the experiment on RT4 tumor (Day 1); 253.4 mm^3 with RT4 tumor (Day 8); 374.0 mm^3 in the experiment with RT4 tumor (Day 15); 511.9 mm^3 with RT4 tumor (Day 22); 675.8 mm^3 in the experiment with RT4 tumor (Day 29); 840.5 mm^3 with RT4 tumor (Day 36). Moreover, the “RT4 Tumor Volumes, Average” value with RT4 tumor (Day 42) is on record as 1024.5 mm^3. Also, the “BFTC-905 Tumor Volumes, Average” value with BFTC-905 tumor (Day 0) was determined as 192.1 mm^3; in the experiment on BFTC-905 tumor (Day 3), 211.4 mm^3; in the experiment on BFTC-905 tumor (Day 7), 243.4 mm^3; in the experiment with BFTC-905 tumor (Day 14), 286.7 mm^3; in the experiment on BFTC-905 tumor (Day 21), 395.0 mm^3; in the experiment with BFTC-905 tumor (Day 28), 511.6 mm^3. In addition, the “BFTC-905 Tumor Volumes, Average” value is listed as 615.5 mm^3 with BFTC-905 tumor (Day 35) and 829.6 mm^3 with BFTC-905 tumor (Day 42).
